Experiments:
Assay type in all cases: functional, cell-based
[1] = system: A549; assay: Cytotoxicity in human A549 cells assessed as reduction in cell viability incubated for 48 hrs by MTT assay; details: A549, 48 h
[2] = system: MDA-MB-231; assay: Cytotoxicity in human MDA-MB-231 cells assessed as reduction in cell viability incubated for 48 hrs by MTT assay; details: MDA-MB-231, 48 h
[3] = system: MCF7; assay: Cytotoxicity in human MCF7 cells assessed as reduction in cell viability incubated for 48 hrs by MTT assay; details: MCF7, 48 h
[4] = system: B16-F10; assay: Cytotoxicity in mouse B16/F10 cells assessed as reduction in cell viability incubated for 48 hrs by MTT assay; details: B16-F10, 48 h
[5] = system: DU-145; assay: Cytotoxicity in human DU145 cells assessed as reduction in cell viability incubated for 48 hrs by MTT assay; details: DU-145, 48 h

| Structure (SMILES) | IC50 [1] | IC50 [2] | IC50 [3] | IC50 [4] | IC50 [5] |
| --- | --- | --- | --- | --- | --- |
| COc1ccc(CN(C(=O)Nc2ccc(C#N)cc2)n2cnnc2)cc1OC | > 50 µM | > 50 µM | > 50 µM | > 50 µM | 24.1 µM |
| Cc1ccc(NC(=O)N(Cc2ccccn2)n2cnnc2)cc1 | 21.9 µM | 39.5 µM | 38.9 µM | 35.2 µM | 21.5 µM |
| O=C(NC1CCCCC1)N(Cc1ccccn1)n1cnnc1 | > 50 µM | 44.1 µM | 46.9 µM | 35.8 µM | > 50 µM |
| O=C(NCc1ccccc1)N(Cc1ccccn1)n1cnnc1 | 22 µM | > 50 µM | > 50 µM | 31 µM | 21.2 µM |
| COc1ccc(CN(C(=S)Nc2ccc(F)c(Cl)c2)n2cnnc2)cc1OC | 21 µM | 27.9 µM | 30.1 µM | 20.7 µM | 23.3 µM |
| COc1ccc(OC)c(CN(C(=S)Nc2ccc(C)cc2)n2cnnc2)c1 | 17.4 µM | > 50 µM | > 50 µM | 20.7 µM | 20.9 µM |
| CCCCCCCCCNC(=S)N(Cc1cc(OC)ccc1OC)n1cnnc1 | > 50 µM | > 50 µM | > 50 µM | 29.4 µM | > 50 µM |
| COc1cc(CN(C(=S)Nc2ccc(C)cc2)n2cnnc2)cc(OC)c1OC | 22.8 µM | > 50 µM | > 50 µM | 46.8 µM | 20.8 µM |
| O=C(Nc1ccccc1)N(Cc1ccccn1)n1cnnc1 | 24.9 µM | > 50 µM | > 50 µM | 23.7 µM | 20.2 µM |
| COc1cc(CN(C(=S)Nc2cc(C(F)(F)F)cc(C(F)(F)F)c2)n2cnnc2)cc(OC)c1OC | 21 µM | 24.9 µM | 23.8 µM | 5.62 µM | 23.1 µM |
| COc1ccc(CN(C(=S)Nc2ccc(C)cc2)n2cnnc2)cc1OC | 22.2 µM | > 50 µM | > 50 µM | 29.9 µM | 26.3 µM |
| O=c1[nH]cc(F)c(=O)[nH]1 [FLUOROURACIL] | – | – | 16.7 µM | – | 39.2 µM |
| N#Cc1ccc(CN(C(=O)Nc2ccccc2)n2cnnc2)cc1 | > 50 µM | > 50 µM | > 50 µM | 34.7 µM | > 50 µM |
